Data reported in US20250296937A1, “CYCLIC BISBENZYL TETRAHYDROISOQUINOLINE COMPOUND, AND PREPARATION METHOD THEREFOR AND USE THEREOF” (Shanghai Institute of Materia Medica, Chinesse Academy of …, priority 2021, published 2025).
Read-outs that look alike come from different tables or passages of the source.

Assays:
[1] = system: 2019 novel coronavirus (SARS-CoV-2) original strain; experiment: Replication inhibitory activity against SARS-CoV-2 original strain in Vero E6 cells (qRT-PCR); assay type: cell-based; details: Severe acute respiratory syndrome coronavirus 2, Vero C1008; Vero E6 cells, MOI 0.01, 24 h p.i., viral copy number by qRT-PCR; read-out: Inhibition against viral replication of the original strain EC50
ALM12 hepatocytes = experiment: Anti H2O2-induced necrotic injury assay in ALM12 hepatocytes (microscopy, CCK-8); assay type: cell-based; details: 2 mM H2O2, 1 μM compound, 3 hours, microscope and CCK-8
Experimental: In this example, the effect of the compounds of the present invention on the level of necrotic injury induced by H2O2 in ALM12 hepatocytes was analyzed by microscopic morphological observations, cell viability in combination with cell death-associated molecules. Cell viability was analyzed by CCK-8 assay. ALM12 cells were cultured in 1640 medium (gibco, c11995500BT)+10% FBS (gibco, 10099141C) in a constant temperature incubator at 37° C., 5% CO2; the CCK-8 kit was purchased from Meilunbio, item no. MA0218-3; H2O2 was purchased from Sinopharm Chemical Reagent Co. item no. 10011208.
Experimental methods: first, 8000 cells/well ALM12 cells were placed in 96-well plates and incubated overnight. On the second day, 0.1% DMSO was added to the control cells, 2 mM H2O2 as well as 0.1% DMSO was added to the model group, 2 mM H2O2 as well as 1 μM of the compounds (oxy, 1, 2, tet, 3, 4, 6, 58) was added to the treatment group, and the 96-well plates were sterilized and incubated in a constant temperature incubator for 3 hours. Finally, cell injury and growth were observed using a microscope; the viability of the cells was detected by CCK-8 kit.

[2] = Cytotoxicity test on Vero E6 cells (CCK8); assay type: cell-based; details: African green monkey; Vero E6 cells, CCK8 kit
Experimental: (§1) In this embodiment, the half toxicity concentration of each embodiment on Vero E6 cells was determined by CCK8 kit analysis (CC50).

HCoV OC43 virus = experiment: Inhibition against HCoV OC43 virus replication; assay type: cell-based, human coronavirus HCoV OC43; details: Betacoronavirus 1, OC43
Raw 264.7 cells [3] = experiment: Cell viability in TNF-α induced inflammation model of Raw 264.7 cells (CCK-8); assay type: cell-based; details: 10 ng/ml TNF-α, 1 μM compound, 16 hours
Experimental: In this embodiment, the effect of compounds on TNF-α-induced inflammation levels in Raw 264.7 cells was analyzed by cell viability combined with inflammatory factor expression levels; cell viability was analyzed by CCK-8 assay; and mRNA expression levels of inflammation-associated indicators were detected by real-time quantitative PCR (Q-PCR) method. Raw 264.7 cells were purchased from ATCC, CCK-8 kit was purchased from Meilunbio, item number MA0218-3, TNF-α was purchased from Merck, item no. GF314.
Experimental methods: first, 8000 cells/well Raw 264.7 cells were placed in 96-well plates and incubated overnight. On the second day, 0.1% DMSO was added to the control cells, 10 ng/ml TNF-α as well as 0.1% DMSO was added to the model group, 10 ng/ml TNF-α as well as 1 μM of the compounds (oxyacanthine hydrochloride (oxy), 1, 2, tetrandrine (tet), 3, 4, 6, 58) was added to the treatment group, and the 96-well plates were sterilized and incubated in a constant temperature incubator for 16 hours. Finally, the viability of the cells was detected using the CCK-8 kit.

[4] = target: novel coronavirus envelope protein (2-E) ion channel (Severe acute respiratory syndrome coronavirus 2, UniProt P0DTC4); experiment: Novel coronavirus envelope protein (2-E) ion channel activity test, planar lipid bilayer (BLM); assay type: biochemical, SARS-CoV-2; details: room temperature, 1, 10, 50, 100 μM, read-out: Inhibition against 2-E ion channels IC50
Raw 264.7 cells [5] = experiment: Cell viability in LPS-induced inflammation model of Raw 264.7 cells (CCK-8); assay type: cell-based; details: 1 μg/ml LPS, 1 μM compound, 16 hours
Experimental: In this example, the effect of the compounds of the present invention on the inflammation level of the LPS-induced inflammation model of Raw 264.7 cells was analyzed by cell viability in combination with inflammatory factors; cell viability was analyzed by CCK-8 assay; and mRNA expression levels of inflammation-related indicators were detected by a real-time quantitative PCR (Q-PCR) method. Raw 264.7 cells were purchased from ATCC; CCK-8 kit was purchased from Meilunbio, item no. MA0218-3; LPS was purchased from Sigma, item no. L2630.
Experimental methods: first, 8000 cells/well Raw 264.7 cells were placed in 96-well plates and incubated overnight. On the second day, 0.1% DMSO was added to the control cells, 1 μg/ml LPS as well as 0.1% DMSO was added to the model group, 1 μg/ml LPS as well as 1 μM of the compounds (oxyacanthine hydrochloride (oxy), 1, 2, tetrandrine (tet), 3, 4, 6, 58) was added to the treatment group, and the 96-well plates were sterilized and incubated in a constant temperature incubator for 16 hours. Finally, the viability of the cells was detected using the CCK-8 kit.

hERG potassium channel = target: T1, hERG potassium channel (Homo sapiens, UniProt Q12809); experiment: hERG potassium channel whole-cell membrane clamp in CHO cells; assay type: cell-based; details: CHO cells stably expressing hERG, whole-cell membrane clamp
T1 construct: expressed in transfected cells
Experimental: Compounds were given for at least 1 min for each tested concentration, and at least 2 cells (n≥2) were tested per concentration.

Vero E6 cells = experiment: Cytotoxicity test on Vero E6 cells (CCK8); assay type: cell-based
Experimental: as §1

Sequence of novel coronavirus envelope protein (2-E) ion channel (P0DTC4 whole entry, looked up): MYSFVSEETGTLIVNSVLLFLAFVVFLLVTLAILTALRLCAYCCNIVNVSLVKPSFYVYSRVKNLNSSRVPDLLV
T1 sequence (Q12809 whole entry): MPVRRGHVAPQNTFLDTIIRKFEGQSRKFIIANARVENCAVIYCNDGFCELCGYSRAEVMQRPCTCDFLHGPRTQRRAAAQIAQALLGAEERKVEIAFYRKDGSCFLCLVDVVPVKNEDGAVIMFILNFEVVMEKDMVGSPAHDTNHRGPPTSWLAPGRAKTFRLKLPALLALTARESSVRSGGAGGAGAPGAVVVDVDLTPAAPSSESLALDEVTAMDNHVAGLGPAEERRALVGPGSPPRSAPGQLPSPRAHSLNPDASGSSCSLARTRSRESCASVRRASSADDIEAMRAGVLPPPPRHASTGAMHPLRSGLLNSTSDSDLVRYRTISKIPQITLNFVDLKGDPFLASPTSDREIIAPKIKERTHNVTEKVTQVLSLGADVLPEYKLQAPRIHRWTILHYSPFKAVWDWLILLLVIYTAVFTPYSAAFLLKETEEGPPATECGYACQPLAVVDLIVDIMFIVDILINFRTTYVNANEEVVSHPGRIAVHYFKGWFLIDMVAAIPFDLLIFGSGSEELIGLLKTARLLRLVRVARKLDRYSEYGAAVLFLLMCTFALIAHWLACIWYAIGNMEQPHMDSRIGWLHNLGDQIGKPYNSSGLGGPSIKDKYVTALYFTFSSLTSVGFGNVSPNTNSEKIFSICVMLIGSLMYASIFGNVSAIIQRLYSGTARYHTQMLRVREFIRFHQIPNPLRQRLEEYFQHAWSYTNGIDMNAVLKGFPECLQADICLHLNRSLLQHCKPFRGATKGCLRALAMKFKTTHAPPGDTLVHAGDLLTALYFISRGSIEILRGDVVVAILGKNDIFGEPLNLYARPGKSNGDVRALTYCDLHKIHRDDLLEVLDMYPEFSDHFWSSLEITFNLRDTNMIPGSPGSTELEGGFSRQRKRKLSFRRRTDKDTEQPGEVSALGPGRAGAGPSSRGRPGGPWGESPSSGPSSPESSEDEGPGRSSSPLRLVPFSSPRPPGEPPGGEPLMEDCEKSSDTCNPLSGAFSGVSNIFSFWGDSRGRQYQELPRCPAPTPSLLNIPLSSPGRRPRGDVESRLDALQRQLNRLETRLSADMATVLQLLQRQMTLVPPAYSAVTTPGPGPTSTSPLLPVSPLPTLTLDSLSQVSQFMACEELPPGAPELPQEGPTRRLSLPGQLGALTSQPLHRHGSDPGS

| SMILES | EC50 [1] | IC50 [2] | IC50 (hERG potassium channel) | other results |
| --- | --- | --- | --- | --- |
| COc1cc2c3cc1Oc1c(OC)c(OC)cc4c1[C@H](Cc1ccc(cc1)Oc1cc(ccc1C#N)C[C@H]3N(C)CC2)N(C)CC4 [Compound 1] | 0.1 to 1 µM | 10 to 30 µM | 6.4 µM | alleviation of H2O2-induced ALM12 hepatocyte injury (ALM12 hepatocytes): significantly alleviated; EC50 (HCoV OC43 virus): 4.2 µM; cell viability in TNF-α-induced inflammation model (Raw 264.7 cells [3]): did not affect cell viability; IC50 [4]: < 10 µM; cell viability in LPS-induced inflammation model (Raw 264.7 cells [5]): did not affect cell viability |
| CNC(=O)c1ccc2cc1Oc1ccc(cc1)C[C@H]1c3c(cc(OC)c(OC)c3Oc3cc4c(cc3OC)CCN(C)[C@@H]4C2)CCN1C [Compound 5] | 1 to 10 µM | > 50 µM | 9.4 µM | cytotoxicity on Vero E6 cells compared with oxyacanthine hydrochloride (Vero E6 cells; Vero E6 cells): weaker cytotoxicity than oxyacanthine hydrochloride |
| COc1cc2c3cc1Oc1c(OC)c(OC)cc4c1[C@H](Cc1ccc(cc1)Oc1cc(ccc1C(=O)O)C[C@H]3N(C)CC2)N(C)CC4 [Compound 7] | – | > 50 µM | > 40 µM | IC50 [4]: 10 to 30 µM |
| COc1cc2c3cc1Oc1c(OC)c(OC)cc4c1[C@H](Cc1ccc(cc1)Oc1cc(ccc1CO)C[C@H]3N(C)CC2)N(C)CC4 [Compound 9] | 0.5 to 1.5 µM | > 50 µM | – | EC50 (HCoV OC43 virus): 3 µM; IC50 [4]: 10 to 30 µM |
| COc1cc2c3cc1Oc1c(OC)c(OC)cc4c1[C@H](Cc1ccc(cc1)Oc1cc(cc5[nH]c(=O)oc15)C[C@H]3N(C)CC2)N(C)CC4 [Compound 17] | 0.1 to 1 µM | 10 to 30 µM | – | – |
| COc1cc2c3cc1Oc1c(OC)c(OC)cc4c1[C@H](Cc1ccc(cc1)Oc1cc(ccc1C(C)=O)C[C@H]3N(C)CC2)N(C)CC4 [Compound 19] | 0.5 to 1.5 µM | 30 to 50 µM | – | – |
| COc1cc2c3cc1Oc1c(OC)c(OC)cc4c1[C@H](Cc1ccc(cc1)Oc1cc(ccc1C(=O)NC1CCCC1)C[C@H]3N(C)CC2)N(C)CC4 [Compound 22] | 0.5 to 1.5 µM | 10 to 30 µM | – | – |
| COc1cc2c3cc1Oc1c(OC)c(OC)cc4c1[C@H](Cc1ccc(cc1)Oc1cccc(c1)C[C@H]3N(C)CC2)N(C)CC4 [Compound 33] | 0.1 to 1 µM | 10 to 30 µM | > 40 µM | EC50 (HCoV OC43 virus): 4.1 µM |
| C=C(C)c1ccc2cc1Oc1ccc(cc1)C[C@H]1c3c(cc(OC)c(OC)c3Oc3cc4c(cc3OC)CCN(C)[C@@H]4C2)CCN1C [Compound 34] | 0.5 to 1.5 µM | 10 to 30 µM | – | IC50 [4]: < 10 µM |
| COc1cc2c3cc1Oc1c(OC)c(OC)cc4c1[C@H](Cc1ccc(cc1)Oc1cc(ccc1C)C[C@H]3N(C)CC2)N(C)CC4 [Compound 35] | 1 to 5 µM | 10 to 30 µM | – | – |
| CCCCCNC(=O)c1ccc2cc1Oc1ccc(cc1)C[C@H]1c3c(cc(OC)c(OC)c3Oc3cc4c(cc3OC)CCN(C)[C@@H]4C2)CCN1C [Compound 37] | 1 to 5 µM | 10 to 30 µM | > 20 µM | IC50 [4]: < 10 µM |
| COc1cc2c3cc1Oc1c(OC)c(OC)cc4c1[C@H](Cc1ccc(cc1)Oc1cc(ccc1C1CC1)C[C@H]3N(C)CC2)N(C)CC4 [Compound 38] | 1 to 5 µM | 10 to 30 µM | – | – |
| COc1cc2c3cc1Oc1c(OC)c(OC)cc4c1[C@H](Cc1ccc(cc1)Oc1cc(ccc1C(C)O)C[C@H]3N(C)CC2)N(C)CC4 (stereo partly shown) [Compound 40] | 0.1 to 1 µM | 30 to 50 µM | – | – |
| COc1cc2c3cc1Oc1c(OC)c(OC)cc4c1[C@H](Cc1ccc(cc1)Oc1cc(ccc1C(=O)Nc1ccccc1)C[C@H]3N(C)CC2)N(C)CC4 [Compound 45] | 1 to 5 µM | 10 to 30 µM | > 20 µM | IC50 [4]: < 10 µM |
| COc1cc2c3cc1Oc1c(OC)c(OC)cc4c1[C@H](Cc1ccc(cc1)Oc1cc(ccc1C(=O)NC(C)C)C[C@H]3N(C)CC2)N(C)CC4 [Compound 48] | 0.1 to 1 µM | 10 to 30 µM | – | – |
| COc1cc2c3cc1Oc1c(OC)c(OC)cc4c1[C@H](Cc1ccc(cc1)Oc1cc(ccc1C(=O)NC15CC6CC(CC(C6)C1)C5)C[C@H]3N(C)CC2)N(C)CC4 [Compound 49] | 0.1 to 1 µM | 5 to 10 µM | – | – |
| COc1cc2c3cc1Oc1c(OC)c(OC)cc4c1[C@H](Cc1ccc(cc1)Oc1cc(ccc1C(=O)NC1CCC1)C[C@H]3N(C)CC2)N(C)CC4 [Compound 50] | 0.1 to 1 µM | 30 to 50 µM | 4.5 µM | – |
| COc1cc2c3cc1Oc1c(OC)c(OC)cc4c1[C@H](Cc1ccc(cc1)Oc1cc(ccc1C(=O)Nc1cccnc1)C[C@H]3N(C)CC2)N(C)CC4 [Compound 51] | 0.1 to 1 µM | 10 to 30 µM | – | – |
| COc1ccc(NC(=O)c2ccc3cc2Oc2ccc(cc2)C[C@H]2c4c(cc(OC)c(OC)c4Oc4cc5c(cc4OC)CCN(C)[C@@H]5C3)CCN2C)cc1 [Compound 52] | 0.1 to 1 µM | 10 to 30 µM | – | – |
| COc1cc2c3cc1Oc1c(OC)c(OC)cc4c1[C@H](Cc1ccc(cc1)Oc1cc(ccc1C(=O)C1CC1)C[C@H]3N(C)CC2)N(C)CC4 [Compound 54] | 1 to 5 µM | 10 to 30 µM | – | – |
| COc1cc2c3cc1Oc1c(OC)c(OC)cc4c1[C@H](Cc1ccc(cc1)Oc1cc(ccc1C(=O)NCCOCCO)C[C@H]3N(C)CC2)N(C)CC4 [Compound 55] | 1 to 5 µM | > 100 µM | > 40 µM | – |
| COc1cc2c3cc1Oc1c(OC)c(OC)cc4c1[C@@H](Cc1ccc(O)c(c1)Oc1ccc(cc1)C[C@@H]3N(C)CC2)N(C)CC4 [berbamine, reference compound] | – | – | – | cytotoxicity (background statement) (Vero E6 cells; inventors' screening of natural products): high cytotoxicity |
| COc1ccc2cc1Oc1ccc(cc1)C[C@H]1c3cc(c(OC)cc3CCN1C)Oc1c(OC)c(OC)cc3c1[C@H](C2)N(C)CC3 [tetrandrine, reference compound] | – | – | – | cytotoxicity (background statement) (Vero E6 cells): high cytotoxicity |
